Assay results from US10568876B2, “Tetrahydroisoquinoline derivatives useful as inhibitors of diacylglyceride O-acyltransferase 2” (Merck Sharp & Dohme Corp., priority 2014, dated 2020).

biological target: hDGAT2 (Homo sapiens (Human), UniProt Q96PD7); test: DGAT2 Enzymatic Activity Assay; format: biochemical; conditions: hDGAT2 Sf-9 membrane prep; 25 μM diolein, 10 μM oleoyl-CoA; triolein product by LC/MS/MS; read-out: IC50 values for inhibition of DGAT2
Method in brief: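 Membranes from Sf-9 cells expressing untagged hDGAT2 (10 ng/μL) incubated at room temperature with 25 μM diolein and 10 μM oleoyl-CoA in 100 mM Tris pH 7.0, 20 mM MgCl2, 5% ethanol. Triolein product quantified by LC/MS/MS against spiked internal standard; IC50 from 4-parameter sigmoidal fit.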

Sequence of hDGAT2 (Q96PD7 whole entry): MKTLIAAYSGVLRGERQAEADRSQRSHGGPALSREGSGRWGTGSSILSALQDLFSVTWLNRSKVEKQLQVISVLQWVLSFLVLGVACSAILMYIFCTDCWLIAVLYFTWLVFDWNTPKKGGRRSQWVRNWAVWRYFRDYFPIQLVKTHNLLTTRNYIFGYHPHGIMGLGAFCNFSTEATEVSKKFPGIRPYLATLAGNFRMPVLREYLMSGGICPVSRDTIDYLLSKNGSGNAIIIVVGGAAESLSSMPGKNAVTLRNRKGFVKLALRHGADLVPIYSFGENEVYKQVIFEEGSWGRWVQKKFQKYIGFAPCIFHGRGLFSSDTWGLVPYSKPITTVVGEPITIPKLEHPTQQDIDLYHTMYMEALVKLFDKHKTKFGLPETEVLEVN

Compound	IC50
COC(=O)c1cccc(-c2ccc(CNC(=O)C3CC3c3ccccc3)c3c2CCN(Cc2ncn(C)c2C)C3)c1 (stereo not drawn) [Example 95, methyl 3-(2-((1,5-dimethyl-1H-imidazol-4-yl)methyl)-8-((2-phenylcyclopropanecarboxamido)methyl)-1,2,3,4-tetrahydroisoquinolin-5-yl)benzoate]	3780 nM
Cc1noc([C@@H]2C[C@H]2C(=O)NCc2ccc(-c3cccc(OC(F)(F)F)c3)c3c2CN(C(=O)Nc2ccon2)CC3)n1 (relative stereo) [Example 2, N-(isoxazol-3-yl)-8-(((trans)-2-(3-methyl-1,2,4-oxadiazol-5-yl)cyclopropanecarboxamido)methyl)-5-(3-(trifluoromethoxy)phenyl)-3,4-dihydroisoquinoline-2(1H)-carboxamide]	112 nM
Cc1noc([C@H]2C[C@@H]2C(=O)NCc2ccc(-c3cccc(C(F)(F)F)c3)c3c2CN(C(=O)C(C)(C)O)CC3)n1 (stereo in doubt) [Example 116, (trans)-N-((2-(2-hydroxy-2-methylpropanoyl)-5-(3-(trifluoromethyl)phenyl)-1,2,3,4-tetrahydroisoquinolin-8-yl)methyl)-2-(3-methyl-1,2,4-oxadiazol-5-yl)cyclopropanecarboxamide]	1580 nM
COc1cccc(-c2ccc(CNC(=O)[C@H]3C[C@@H]3C(=O)O)c3c2CCN(C(=O)NC(C)(C)C)C3)c1 (relative stereo) [Example 84, (trans)-2-(((2-(tert-butylcarbamoyl)-5-(3-methoxyphenyl)-1,2,3,4-tetrahydroisoquinolin-8-yl)methyl)carbamoyl)cyclopropanecarboxylic acid]	1340 nM
Cc1noc([C@@H]2C[C@H]2C(=O)NCc2ccc(-c3cccc(C(F)(F)F)c3)c3c2CN(C(=O)Nc2cccnc2)CC3)n1 (relative stereo) [Example 6, 8-(((trans)-2-(3-methyl-1,2,4-oxadiazol-5-yl)cyclopropanecarboxamido)methyl)-N-(pyridin-3-yl)-5-(3-(trifluoromethyl)phenyl)-3,4-dihydroisoquinoline-2(1H)-carboxamide]	101 nM
Cc1noc(C)c1-c1ccc(CNC(=O)[C@@H]2C[C@H]2c2ccccc2)c2c1CCN(C(=O)NC(C)(C)C)C2 (relative stereo) [Example 41, N-(tert-butyl)-5-(3,5-dimethylisoxazol-4-yl)-8-(((trans)-2-phenylcyclopropanecarboxamido)methyl)-3,4-dihydroisoquinoline-2(1H)-carboxamide]	1440 nM

Compounds with a lower IC50, results first:

IC50	Compound
59.8 nM	Cc1noc2ccc(-c3ccc(CNC(=O)[C@@H]4C[C@H]4c4ccccc4)c4c3CCN(C(=O)NC(C)(C)C)C4)cc12 (relative stereo) [Example 27, N-(tert-butyl)-5-(3-methylbenzo[d]isoxazol-5-yl)-8-(((trans)-2-phenylcyclopropanecarboxamido)methyl)-3,4-dihydroisoquinoline-2(1H)-carboxamide]
10.4 nM	CC(C)(C)NC(=O)N1CCc2c(-c3cccc(-c4nnco4)c3)ccc(CNC(=O)[C@@H]3C[C@H]3c3ccccc3)c2C1 (relative stereo) [Example 49, 5-(3-(1,3,4-oxadiazol-2-yl)phenyl)-N-(tert-butyl)-8-(((trans)-2-phenylcyclopropanecarboxamido)methyl)-3,4-dihydroisoquinoline-2(1H)-carboxamide]
0.66 nM	CCOC(=O)c1cncc(-c2ccc(CNC(=O)[C@@H]3C[C@H]3c3ccccc3)c3c2CCN(C(=O)NC(C)(C)C)C3)c1 (relative stereo) [Example 46, ethyl 5-(2-(tert-butylcarbamoyl)-8-(((trans)-2-phenylcyclopropanecarboxamido)methyl)-1,2,3,4-tetrahydroisoquinolin-5-yl)nicotinate]
